Results from US20240390330A1, “ALPHA-2-ADRENERGIC RECEPTOR AGONISTS FOR REDUCING REDNESS AND INCREASING WHITENESS IN EYES AND OTHER OPHTHALMIC PURPOSES” (Allergan, Inc., priority 2020, published 2024).

Experiments:
[1] = tested on: pupil size; settings: brimonidine tartrate ophthalmic solution 0.2%, presbyopic patients, different lighting conditions (McDonald II et al.); cited from earlier work
[2] = Protocol: Aliquots of the PBS only curve were quenched at time zero to be used as stability controls and calibration standards. Following centrifugation, samples were analyzed by LC-MS/MS bioanalysis. Back-calculated concentrations using the assay PBS curve were used for binding and stability calculations.
[3] = tested on: eye redness; assay: Treatment of red eye (patient cases); assay type: in vivo, human; settings: person
Description: A person complains about eye redness caused by seasonal allergies. A physician identifies the patient as having an OSH score of +2, and instructs them to administer to both of their eyes a composition comprising a compound of Formula I once or twice a day. Within the first day of administering the compound of Formula I, the patient reports decreased eye redness despite having on-going seasonal allergies, and their physician identifies the patient as having an OSH score of +0.5.
A person without any underlying health problems notices their eyes are red, making them appear tired at work. They administer to both of their eyes a composition comprising a compound of Formula I in order to increase the whiteness of their eyes for cosmetic reasons.
A person complains to their doctor that they suffer from red eyes due to minor eye irritations. The doctor prescribes a composition comprising a compound of Formula I and instructs them to administer the composition once or twice a day. The doctor also tells the person that many other marketed compositions for reducing eye redness are associated with side effects such as rebound hyperemia, dependency, and/or tachyphylaxis and that the person should report any such side effects.
Upon recommendation from a friend, they ask their doctor about possibly switching to a composition comprising the compound of Formula I since their friend told them that it works faster than brimonidine.

[4] = tested on: pupil diameter; assay: In vivo rabbit miosis model; set-up: species or system Dutch Belted rabbits; settings: for miotic efficacy compared with brimonidine: single topical dose, low-light conditions, FIG. 4 to FIG. 7
Protocol: Female Dutch Belted rabbits (Covance, Princeton, New Jersey) weighing between 2-4 kg were used for these studies. […] For topical dosing, eye drops (volume=35 μl) were instilled into the lower conjunctival sac of the test eye.
Pupil diameter was measured in both the treated and untreated eye with an Optistick to the nearest 0.5 mm. […]

[5] = tested on: ocular hyperemia; assay: Reducing eye redness in rabbits (naive and povidone iodine induced hyperemia model); assay type: in vivo, New Zealand White rabbits
Protocol: In this study, Applicant evaluated the compound of Formula I on ocular hyperemia (i.e., eye redness).
The modified Hackett-McDonald Scoring scale (Table 1) was used to assess hyperemia, discomfort, conjunctival swelling and discharge. Ocular imaging was conducted via a Haag-Streit B slit lamp. Effects of these compounds were first evaluated in naïve animals following baseline measurements and then assessed in a povidone iodine induced hyperemia model.
Animals: This study was conducted in female New Zealand White rabbits (Covance) weighing approximately 2-4 kg upon arrival.
This effect can be utilized as a transient hyperemia model to evaluate for potential blanching of blood vessels and rapid reduction of hyperemia. The ocular surface was anesthetized with drops of 0.5% proparacaine. The eye was then irrigated with 5% povidone iodine ophthalmic solution and left on the ocular surface for at least 2 minutes to ensure the solution completely covers the eye. The periocular region was also wiped with povidone solution. Following 2 minutes post-irrigation, the eye was rinsed with sterile saline until the rinsed solution runs clear. Hyperemia at baseline and post ocular topical treatment was assessed via the modified Hackett-McDonald Scoring Scale shown in Table 1 above.
Ocular imaging: A Haag-Streit BP 900 slitlamp was used to evaluate the anterior segment of the eye (e.g., corneal integrity and cells in the aqueous humor). Pupils were dilated by applying drops of 1% cyclopentolate and 10% phenylephrine to the ocular surface. Ocular imaging was conducted in awake and/or anesthetized animals (7.5-10 mg/kg Ketamine/1-10 mg/kg Xylazine).

[6] = after 6 hours, 0.1% w:v, FIG. 7

Brc1c(NC2=NCCN2)ccc2nccnc12 [Compound 4, brimonidine, reference compound]
average pupil size [1]: 3.4 mm | melanin binding (in words) [2]: much more significant binding | onset of eye redness reduction [3]: takes effect in less than a minute | animals with greater than 2.5 mm reduction in pupil size from baseline ([4]; a half hour after dosing, 0.1% w:v, FIG. 7): much less than half | animals with greater than 2.5 mm reduction in pupil size from baseline [4, 6]: virtually none

Brc1c(N=C2NCCN2)ccc2[nH]cnc12 [Compound 3, reference compound]
miotic efficacy compared with brimonidine [4]: much less than brimonidine

Cc1c(N=C2NCCN2)ccc2[nH]cnc12 [Compound 1]
melanin binding (in words) [2]: no significant melanin binding | onset of eye redness reduction [3]: more effective in reducing eye redness in quite a bit less than a minute and faster than the brimonidine composition | whiteness of the eyes ([3]; cosmetic use, both eyes): noticeably whiter | eye redness ([3]; minor eye irritations, once or twice a day, a few weeks): no longer as red as they used to be | rebound hyperemia, dependency, tachyphylaxis ([3]; once or twice a day, a few weeks): has not observed any of the rebound hyperemia, dependency, or tachyphylaxis | OSH score ([3]; seasonal allergies, baseline +2, within the first day, scale of Table 2): +0.5 | responder analysis of rabbits with >2.5 mm pupil change ([4]; 0.1% w:v, n=6, scotopic condition (<10 lux), FIG. 7): more efficacious than brimonidine | magnitude of pupil size reduction compared with brimonidine ([4]; FIG. 7 and FIGS. 5 and 6): greater magnitude of pupil size reduction and therapeutic activity when compared to brimonidine | pupil constriction over 9 hours ([4]; FIG. 9): significant pupil constriction even at 9 hours after dosing | effect on pupil constriction compared with Compound 3 ([4]; FIG. 10): greater effect on pupil constriction when compared to Compound 3 | dose miotic response ([4]; Scotopic condition (<10 lux), FIG. 6): very potent dose miotic response | animals with greater than 2.5 mm reduction in pupil size from baseline [4, 6]: more than half | miotic effect compared with other alpha adrenergic receptor agonists including brimonidine ([4]; rabbit, in vivo): best miotic effect | miotic action (peak pupil constriction and duration of action) ([4]; room lighting conditions, FIG. 8): greater miotic action than brimonidine | animals with greater than 2.5 mm reduction in pupil size from baseline ([4]; two hours after dosing, 0.1% w:v, FIG. 7): virtually all animals | hyperemia reduction on digital redness scale compared with LUMIFY ([5]; 0.03% composition, FIG. 3): performed better than LUMIFY® | time post treatment of significant reduction in hyperemia ([5]; 0.03% composition, FIG. 3): ≤ 1 min | efficacy on ocular hyperemia compared with LUMIFY ([5]; 0.03% composition, single eye drop (~35 μl), FIG. 1 and FIG. 2): significantly greater efficacy on ocular hyperemia than LUMIFY® | reduction in the Modified Hackett-McDonald Score compared with LUMIFY ([5]; score including hyperemia, discomfort, conjunctival swelling and discharge): greater reduction in the Modified Hackett-McDonal Score

CCc1c(N=C2NCCN2)ccc2[nH]cnc12 [Compound 2, reference compound]
miotic efficacy compared with brimonidine [4]: much less than brimonidine
